This note sets out measurements from patent US5620958A, “Bradykinin antagonists” (Coretech, Inc., priority 1994, dated 1997).

SMILES strings stand for the structures. Peptide text beside a SMILES is read from it.

Test [1] addresses T1, BK2 receptor (Oryctolagus cuniculus, UniProt Q28642).
T1 construct: when administered to an intact animal; from tissue; host or cells: whole rabbit (systemic arterial blood pressure), LPS-pretreated
T1 sequence (Q28642 1-367): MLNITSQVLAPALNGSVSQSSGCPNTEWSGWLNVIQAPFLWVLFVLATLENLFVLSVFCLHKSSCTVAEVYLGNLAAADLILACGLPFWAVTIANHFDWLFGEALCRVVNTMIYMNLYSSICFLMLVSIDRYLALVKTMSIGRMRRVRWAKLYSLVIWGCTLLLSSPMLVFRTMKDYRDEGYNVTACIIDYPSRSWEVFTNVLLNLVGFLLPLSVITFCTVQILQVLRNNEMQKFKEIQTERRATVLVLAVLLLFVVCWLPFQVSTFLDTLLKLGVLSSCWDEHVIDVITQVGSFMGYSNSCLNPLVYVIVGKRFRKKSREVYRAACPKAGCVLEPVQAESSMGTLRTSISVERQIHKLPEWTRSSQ
Nature of the test: rabbit jugular vein (RJV) in vitro, antagonism of BK. In kind it is cell-based. The following applies: Table A; recovery after washing.

Test [2] concerns BK-induced vascular permeability. Put plainly: rabbit skin vascular permeability to intradermal BK (Evans Blue). It counts as in vivo.
Another test relates to BK-induced hypotension. Put plainly: BK-induced hypotension in the anesthetized rat. Conditions: intravenous infusion 9 nmol kg^-1 min^-1; BK 4×10^-9 moles; FIG. 3. It counts as in vivo. How it is done:
After stopping the infusion of CP-0127, it can be seen that the responses to BK returned slowly being fully recovered after approximately 20 minutes.
Using anaesthetized rats, dose-response curves to BK were constructed and the ED50 identified (see FIG. 5a). The ED50 was then injected before and at 15 minute intervals after a single S.C. injection of CP-0127.

The next test concerns the target T2, BK1 receptor (Oryctolagus cuniculus, UniProt P48748).
T2 construct: when administered to an intact animal; from tissue; host or cells: whole rabbit (systemic arterial blood pressure), LPS-pretreated
T2 sequence (P48748 1-352): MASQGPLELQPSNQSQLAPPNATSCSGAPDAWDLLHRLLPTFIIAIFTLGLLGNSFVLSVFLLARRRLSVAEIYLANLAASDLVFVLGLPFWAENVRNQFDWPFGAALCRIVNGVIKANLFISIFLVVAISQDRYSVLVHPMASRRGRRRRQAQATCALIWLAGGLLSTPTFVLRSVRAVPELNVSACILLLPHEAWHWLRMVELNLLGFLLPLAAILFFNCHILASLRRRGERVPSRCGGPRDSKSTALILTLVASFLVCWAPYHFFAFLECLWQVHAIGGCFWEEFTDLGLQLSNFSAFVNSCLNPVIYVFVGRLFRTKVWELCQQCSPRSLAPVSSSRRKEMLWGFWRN
Nature of the test: rabbit aorta in vitro, reversal of des-Arg^9 -BK contraction. It counts as cell-based. The following applies: Table G; negative log of molar concentration causing 50% reversal of 10^-7 M des-Arg^9 -BK contraction.

The target in test [3] is T1, BK2 receptor. Put plainly: blood pressure response to BK2 agonist in LPS-pretreated rabbits. It counts as in vivo, rabbit. More on the design: key to OBSERVED ANTAGONIST ACTIVITY BK2: +: indicates complete blockade of the blood pressure response to the appropriate agonist; +/-: indicates partial blockade; -: indicates no observable effect at the dose indicated. Conditions: rabbits given LPS (10 μg) 20 hours before.

As for `CC(C)C[C@H](NC(=O)[C@@H](Cc1ccccc1)NC(=O)[C@H](CS)NC(=O)[C@H](Cc1ccccc1)NC(=O)CNC(=O)[C@@H]1C[C@@H](O)CN1C(=O)[C@@H]1CCCN1C(=O)[C@H](CCCNC(=N)N)NC(=O)[C@H](N)CCCNC(=N)N)C(=O)N[C@@H](CCCNC(=N)N)C(=O)O` [CP-0126] (HELM PEPTIDE1{[dR].R.P.[Hyp].G.F.C.[dF].L.R}$$$$V2.0), the “RJV % REC” value on BK2 receptor [1] came to 60%. Further, the “inhibition of BK-induced skin vascular permeability” value is reported as “more potent than CP-0127” in test [2] (co-injected intradermally with BK, FIG. 2A) and “significantly less effective” in test [2] (pre-injected 15 or 30 minutes before BK in the same site, FIGS. 2B, 2C). In addition, the “inhibition of hypotensive response to BK” value in the test on BK-induced hypotension is given as “almost totally ineffective”. For the same molecule, the “BK1 RABBIT AORTA IC50” value on BK1 receptor was “Inactive”. Besides, the “OBSERVED ANTAGONIST ACTIVITY BK2” value at BK2 receptor [3] (1 μg kg^-1 min^-1), on BK2 receptor [3] (3 μg kg^-1 min^-1) and at BK2 receptor [3] (10 μg kg^-1 min^-1) was “+” throughout.
